# Where two headings read alike, the source gives them in different places. Non-standard residues stand in square brackets, D forms with d. Residues, ends and D or L forms follow the SMILES beside them. *: point of attachment. dMet(O) = CS(=O)CC[C@@H](N)C(=O)O; Lauroyl = CCCCCCCCCCCC(=O)*; Octanoyl = CCCCCCCC(=O)*; NH(CH2)4NH2 = NCCCCN*
# Experiments:
# [1] = test system: human lung adenocarcinoma cell A549; assay: MTT cytotoxicity assay, A549; assay type: cell-based
# Text: (§1) The two human acute lymphoblastic leukemia cells K562 and Kasumi, two human breast adenocarcinoma cells MCF7 and MDA-MB-231, human hepatoma cell HepG-2, human lung adenocarcinoma cell A549, human gastric cancer cell SGC-7901, human colon cancer cell HCT-116, human ovarian cancer cell line SKOV3, or human lung epithelial normal cell 2B were obtained from Beyotime Biotechnology and utilized to test the cytotoxicity of compounds by MTT assays as previous study. The anti-inflammatory effect of the compounds was detected by the influence on the increase in the level of nitric oxide caused by lipopolysaccharide (LPS) based on the classic Griess method. RAW 264.7 cells (Shanghai Institutes for Biological Science) were seeded in 96-well plates and incubated for 24 h. Then, cells were treated with compounds 29, 29a, 31, and 31a (0-80 μM) for 30 min, followed by co-treatment with LPS ([…]) for another 24 h. The Nitric Oxide assay kit with Griess reagents (Beyotime, Lot: S0021, Shanghai, China) was used to examine cellular supernatant nitrite accumulation, which represents cellular NO levels. The OD value of 540 nm absorbance was detected with a microplate reader. Their authentication in the laboratory was performed regularly based on morphology and gene/protein expression. The tested micro-organisms including Gram-negative bacteria E. coli ATCC 35218 and Pseudomonas aeruginosa ATCC 27853, and Gram-positive bacteria Staphylococcus aureus ATCC 29213 and B. subtilis ATCC 6633, and fungi Candida albicans, Rhizoctonia solani and Aspergillus fumigatus were treated with different concentrations of compounds (1 μM, 10 μM, 100 μM) using Bauer-Kirby disk diffusion method to evaluate the antimicrobial activities.
# [2] = test system: human breast adenocarcinoma cells MDA-MB-231; assay: cells; assay type: cell-based
# Text: as §1
# [3] = test system: human hepatoma cell HepG-2; assay: cells; assay type: cell-based
# Text: as §1
# [4] = test system: human lung epithelial normal cell 2B; assay: cells; assay type: cell-based
# Text: as §1
# [5] = test system: S. brevitalea DSM 7029 wild type; assay: Biofilm formation of DSM 7029 wild type with compounds (crystal violet); assay type: cell-based, Schlegelella brevitalea DSM 7029; details: relative to wild type treated with H2O = 100%; crystal violet 0.1%, OD600; mean of n = 3
# Protocol: The growth curve was tested by Bioscreen C (Labsystems, Finland) as follow. Overnight culture was inoculated into 400 μL fresh CYMG medium in the ratio of 1:100 (the concentration of compounds was 0.1 μg/μL) and shook in normal speed. The OD600 value was gained in every hour for 42 h in total. Biofilm formation was measured at 18 h and 36 h respectively, as reported previously. In brief, the free-floating cells were removed, and the microtitre plate was washed with PBS (pH 7.4) after incubation for 18 h and 36 h. The biofilm was stained by adding 200 µL of crystal violet (0.1%) solution. Crystal violet solution was removed after 15 min and 200 µL of ethanol (95%) was added. The absorbance at OD600 was read using a microplate reader (Infinite M200, Tecan, Männedorf, Switzerland). Meanwhile, free-floating cells were used to test the secretion of pigment. The bacteria were removed and the supernatant was measured at OD600.
# PvdQ-like acylase GdnD = assay: Deacylation by acylase GdnD (cell lysate, LC-MS); assay type: biochemical, Schlegelella brevitalea DSM 7029; details: 100 μL E. coli cell lysate with GdnD, 5 μL 10 mM substrate, 30 °C; 7 and 8: 4 h, 16 h, 27 h; other substrates 16 h; boiled lysate as control
# Protocol: The hydrolysis function of PvdQ-like acylase GdnD was tested. GdnD is predicted to be a periplasmic protein by PSORTb[13]. The collected pellet from 50 mL LB dissolved with 8 mL buffer C (50 mM Tris, 300 mM NaCl, 5 mM MgCl2, pH 7.6), and lysed by cell disruption. Then, one hundred microliter of the cell lysate was incubated with 5 μL 10 mM substrates 7 and 8 for 4 h, 16 h, and 27 h at 30 °C. The negative control was boiled cell lysate. The other substrates (13, 14, 15, 16, and 17) incubated with the cell lysate dealt for 16 h at 30 °C. Then, the reaction was stopped by the addition of the 100 μL MeOH, and the final mixture was checked by LC‒MS analysis (5%‒95% ACN in 15 min) according to the above condition.
# [6] = test system: C13 domain of GdnB fragments and mutants; assay: Condensation of T12-linked L-Ala with Put or other diamines (yield of 24a-27a, LC-MS); assay type: biochemical, Schlegelella brevitalea DSM 7029; details: Average of n = 3
# Protocol: In vitro assays for the different enzymes of the C-terminal multi-domains were performed. Reaction buffer contained 80 μM protein, 3 μM Sfp from B. subtilis, 200 μM CoA, 2.5 mM L-Ala and 5 mM ATP was incubated at 30 °C for 30 min. Then, 2.5 mM diamines or polyamines (i.e. putrescine, 1,7-diaminoheptane, 1,6-diaminohexane, 1,5-diaminopentane, 1,2-diaminocyclohexane, spermine, and spermidine, respectively) was added to make final volume of 200 μL. The reaction was further incubated at 30 °C for 1 h or 4 h. Triple amount of cold methanol was added to quench the reaction, and the supernatant was dried by SpeedVac after removed the precipitate at 10,000 × g for 8 min. The reaction mixture was dissolved with 200 μL ddH2O, and then the mixture was derived with D-FDAA according to the procedure of the above Marfey’s analysis. The final reaction mixture was suspended using 100 μL 2 M HCl, which subsequently was dried by SpeedVac. Finally, the mixture dissolved with 100 μL MeOH to detect the target products (24a, 25a, 26a, and 27a) using LC‒MS analysis (5%‒95% ACN in 15 min).
# [7] = test system: human ovarian cancer cell line SKOV3; assay: cells; assay type: cell-based
# Text: as §1
# tumor lines = assay: MTT cytotoxicity assay, statements on the whole panel; assay type: cell-based, human
# Text: as §1
# human cells Kasumi = assay: MTT cytotoxicity assay, Kasumi; assay type: cell-based; details: Homo sapiens; MTT assay; Supplementary Table 11; read-out: IC50 Kasumi
# Text: as §1
# [8] = test system: human acute lymphoblastic leukemia cells K562; assay: cells; assay type: cell-based; details: Homo sapiens, K562; MTT assay; Supplementary Table 11; read-out: IC50 K562
# Text: as §1
# [9] = test system: human breast adenocarcinoma cells MCF7; assay: cells; assay type: cell-based; details: Homo sapiens, MCF7; MTT assay; Supplementary Table 11; read-out: IC50 MCF-7
# Text: as §1
# [10] = test system: human colon cancer cell HCT-116; assay: cells; assay type: cell-based; details: Homo sapiens, HCT-116; MTT assay; Supplementary Table 11; read-out: IC50 HCT116
# Text: as §1
# [11] = test system: human gastric cancer cell SGC-7901; assay: cells; assay type: cell-based; details: Homo sapiens, SGC-7901; MTT assay; Supplementary Table 11; read-out: IC50 SGC-7901
# Text: as §1
compound,measurement,setting,value
"CCCCCCCCCCCC(=O)N[C@H](CC[S+](C)[O-])C(=O)N[C@H](CC(N)=O)C(=O)N1CCC[C@H]1C(=O)N[C@H](C(=O)N[C@H](Cc1ccccc1)C(=O)N1CCC[C@H]1C(=O)N[C@@H](Cc1c[nH]c2ccccc12)C(=O)N[C@@H](C(=O)N[C@@H](C)C(=O)N[C@H](C)C(=O)N[C@@H](CO)C(=O)N[C@@H](C)C(=O)NCCCCN)C(C)C)C(C)C (stereo partly shown) [Compound 8, Glidonin H] (Lauroyl-[dMet(O)][dN]PV[dF]PW[dV]A[dA]SA-{NH(CH2)4NH2})",IC50,[1]; 24 h,> 20 µM
same,IC50,[2]; 24 h,> 20 µM
same,IC50,[3]; 24 h,> 20 µM
same,IC50,[4]; 24 h,> 20 µM
same,"biofilm formation 18 h, Average",[5],153.143%
same,"biofilm formation 36 h, Average",[5],147.847%
same,"deacylation by GdnD, nonacylated product by LC-MS",PvdQ-like acylase GdnD,nonacylated products 1 and 2 were detected
CC(N)C(=O)NCCCCCCCNc1cc(NC(C)C(N)=O)c([N+](=O)[O-])cc1[N+](=O)[O-] (stereo not shown) [Compound 27a],"L-Ala condensing with Put, 1,5-diaminopentane, 1,6-diaminohexane, and 1,7-diaminoheptane (Relative Yield of product)",[6]; protein A12T12,100
same,"L-Ala condensing with Put, 1,5-diaminopentane, 1,6-diaminohexane, and 1,7-diaminoheptane (Relative Yield of product)",[6]; protein A12T12C13A*T13,248.895
CCCCCCCC(=O)N[C@@H](CC(C)C)C(=O)N[C@H](C(=O)N[C@@H](Cc1ccc(O)cc1)C(=O)N[C@H](C)C(=O)N[C@@H](C)C(=O)N[C@H](C)C(=O)N[C@H](C(=O)NCCCCN)C(C)C)[C@@H](C)O [Compound 29] (Octanoyl-LTY[dA]A[dA]V-{NH(CH2)4NH2}),IC50,[1]; 24 h,39.92 ± 0.15 µM
same,IC50,[2]; 24 h,110 ± 2.6 µM
same,IC50,[3]; 24 h,265.5 ± 2.43 µM
same,IC50,[4]; 24 h,102.4 ± 0.25 µM
same,IC50,[7]; 24 h,81.4 ± 1.02 µM
same,cytotoxic / antitumor activity in words,tumor lines,higher anti-inflammatory and antitumor activities than 29a and 31a
same,IC50,tumor lines; 24 h,> 40 µM
"CCCCCCCC(=O)N[C@@H](CC(C)C)C(=O)N[C@H](C(=O)N[C@@H](Cc1ccc(O)cc1)C(=O)N[C@H](C)C(=O)N[C@@H](C)C(=O)N[C@H](C)C(=O)N[C@H](C(=O)O)C(C)C)[C@@H](C)O [Compound 29a, octanoyl-L-Leu-L-Thr-L-Tyr-D-Ala-L-Ala-D-Ala-L-Val] (Octanoyl-LTY[dA]A[dA]V-OH)",IC50,[1]; 24 h,82.2 ± 2.58 µM
same,IC50,[3]; 24 h,267.5 ± 0.01 µM
same,IC50,[4]; 24 h,269.4 ± 1.23 µM
same,IC50,[7]; 24 h,161 ± 3.67 µM
CCCCCCCC(=O)N[C@H](C(=O)N[C@@H](Cc1ccccc1)C(=O)N[C@@H](CCC(=O)O)C(=O)N[C@H](C(=O)N[C@@H](C)C(=O)O)[C@@H](C)CC)C(C)C [Compound 31a] (Octanoyl-VFEIA-OH; C-terminus assumed),IC50,[1]; 24 h,453.4 ± 0.68 µM
same,IC50,[2]; 24 h,200.5 ± 0.07 µM
same,IC50,[3]; 24 h,94.29 ± 0.19 µM
same,IC50,[4]; 24 h,92.26 ± 0.03 µM
same,IC50 SKOV3,"[7]; MTT assay, Supplementary Table 12, n.s. indicates negative significance",n.s.
"COc1cccc2c1C(=O)c1c(O)c3c(c(O)c1C2=O)C[C@@](O)(C(=O)CO)C[C@@H]3O[C@H]1C[C@H](N)[C@H](O)[C@H](C)O1 [doxorubicin, reference compound]",IC50,human cells Kasumi,0.42 ± 0.1 µM
same,IC50,"[1]; Homo sapiens, A549, MTT assay, Supplementary Table 11, read-out: IC50 A549",0.82 ± 0.25 µM
same,IC50,"[1]; Homo sapiens, A549, MTT assay, Supplementary Table 12, read-out: IC50 A549",0.73 ± 0.05 µM
same,IC50,[8],0.79 ± 0.34 µM
same,IC50,[9],2.6 ± 0.34 µM
same,IC50,"[2]; Homo sapiens, MDA-MB-231, MTT assay, Supplementary Table 11, read-out: IC50 MDA-MB-231",0.63 ± 0.07 µM
same,IC50,"[2]; Homo sapiens, MDA-MB-231, MTT assay, Supplementary Table 12, n.s. indicates negative significance, read-out: IC50 MDA-MB-231",0.91 ± 0.05 µM
same,IC50,[10],0.59 ± 0.04 µM
same,IC50,[11],0.14 µM
same,IC50,"[3]; Homo sapiens, HepG2, MTT assay, Supplementary Table 11, read-out: IC50 HepG2",3.21 ± 0.67 µM
same,IC50,"[3]; Homo sapiens, HepG2, MTT assay, Supplementary Table 12, read-out: IC50 HepG-2",0.23 ± 0.02 µM
same,IC50,"[4]; Homo sapiens, MTT assay, normal cell, Supplementary Table 11, read-out: IC50 2B",1.32 ± 0.11 µM
same,IC50,"[4]; Homo sapiens, MTT assay, normal cell, Supplementary Table 12, read-out: IC50 2B",1.34 ± 0.09 µM
same,IC50,"[7]; Homo sapiens, SK-OV-3, MTT assay, Supplementary Table 12, n.s. indicates negative significance, read-out: IC50 SKOV3",1.29 ± 0.01 µM
"C14-Rhizomide A [Compound 17, reference compound]","deacylation by GdnD, nonacylated product by LC-MS",PvdQ-like acylase GdnD,could remove myristoyl

# Source: publication PMC10587159, “Biosynthesis and engineering of the nonribosomal peptides with a C-terminal putrescine” (Nature Communications, 2023)
